{"source": "patent US20250090689A1", "about": "“[…] FOR TREATING EPILEPSY AND NEUROPATHIC PAIN” (Trames Bio, Inc., priority 2022, published 2025)", "target": "T1, CODA71 receptor (Homo sapiens, UniProt P36544, F159M/H163T/I152M/R155K/V154L/W156N/Y151P)", "T1 construct": "expressed in transfected cells; host or cells: mouse brain neurons transduced in vivo with AAV carrying expression cassettes #11, #13, #33, #34, #35, #36 (KA focal epilepsy model)", "T1 sequence (P36544 with tags, fused parts or gaps Y151P/I152M/V154L/R155K/W156N/F159M/H163T)": "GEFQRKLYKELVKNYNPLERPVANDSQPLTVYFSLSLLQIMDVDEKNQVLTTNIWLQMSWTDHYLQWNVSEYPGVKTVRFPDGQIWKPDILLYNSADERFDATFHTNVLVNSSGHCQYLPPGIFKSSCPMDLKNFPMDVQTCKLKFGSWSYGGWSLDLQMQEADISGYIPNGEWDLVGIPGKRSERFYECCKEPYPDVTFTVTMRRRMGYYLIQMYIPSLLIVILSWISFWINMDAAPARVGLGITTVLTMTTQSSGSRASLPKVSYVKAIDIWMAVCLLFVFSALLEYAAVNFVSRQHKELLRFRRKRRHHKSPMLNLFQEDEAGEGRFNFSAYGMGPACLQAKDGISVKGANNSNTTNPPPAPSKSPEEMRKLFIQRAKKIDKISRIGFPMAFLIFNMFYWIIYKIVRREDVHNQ", "experiment": "kainic acid (KA) focal epilepsy mouse model, seizure frequency after repeated dosing of TC-5619", "type": "in vivo", "description": "Six expression cassettes—#11, #13, #33, #34, #35, and #36 in Table 2—were each packaged into the AAV vector and tested in a kainic acid (KA) focal epilepsy mouse model. The animals were then monitored for seizure frequency following repeated dosing of TC-5619, an activator of the CODA71 receptor transgene encoded by these expression cassettes.", "data": [{"compound": "O=C(N[C@@H]1C2CCN(CC2)[C@H]1Cc1cccnc1)c1cc2ccccc2o1", "note": "[TC-5619]", "values": [{"measurement": "seizure burden", "setting": "higher dose ranges of TC-5619, KA mice with AAV-delivered CODA71 cassettes", "value": "significantly reduced seizure burden"}, {"measurement": "seizure frequency", "setting": "repeated dosing of TC-5619 in KA mice injected with AAV carrying cassettes #11, #13, #33, #34, #35 or #36, FIG. 7", "value": "dose-dependent reduction of seizure frequency"}, {"measurement": "residual effect after washout (return to baseline)", "setting": "repeated single doses of TC-5619 followed by washout", "value": "no residual effect"}]}]}
